These results are taken from patent US20240351966A1, “CLASS OF ALKYLPHENOL COMPOUNDS AND PREPARATION METHOD THEREFOR” (Shanghai Institute of Materia Medica, Chinese Academy of …, priority 2021, published 2024).

The structures appear in SMILES notation.

The assay concerns the target DRAK2 (Homo sapiens (Human), UniProt O94768). As to the kind of experiment: Evaluation of DRAK2 inhibitory activity by ADP-Glo kinase assay. The class given is biochemical. The following applies: ADP-Glo luminescent kinase assay. The text has this:
To determine the inhibitory activity of compounds against kinases by the kinase assay kit ADP-GLO.
DRAK2 is a serine/threonine protein kinase. ADP Glo& #8482; Kinase Assay (ADP Glo& #8482; Kinase Assay Kit) is a luminescent kinase assay kit that can detect ADP formed during kinase reactions; this kit can firstly convert ADP into ATP, which is then captured by Ultra Glo& #8482, luciferase and ultimately converts into light. The emitted light signal is positively correlated with the corresponding ATP, thus through this method, the inhibitory activity of small molecule compounds on DRAK2 can be measured.
The compound was dissolved in DMSO before experiment to prepare stock solution.
When using, the stock solution was diluted with culture medium to a desired concentration.
• 1. 1 μl of compound was added to the well for each assay • 2. […] 2 μl of ATP was added to each well of the assay plate • 4. the plate was shook and centrifuged.
2.5 μl ADP-Glo™ reagent was add to terminate kinase reaction and consume unconsumed ATP, leaving only ADP and very low ATP background to incubate at room temperature for 60 minutes.
5 μl of kinase assay reagent was add to convert ADP to ATP, and luciferase and […] were introduced to detect ATP.
Envision was used to measure luminescence
• 1. Values were copied from Envision program
The “minimum” refers to the proportion of without enzyme control, while “maximum” refers to the proportion of DMSO control. • 3. GraphPad Prism 5.0 was used to process data
Through this method, the inhibitory activity of small molecule compounds on DRAK2 can be obtained.
In general terms: ADP-Glo turns the ADP formed in a reaction into a luminescent signal.

Sequence of DRAK2 (O94768 whole entry, species assumed): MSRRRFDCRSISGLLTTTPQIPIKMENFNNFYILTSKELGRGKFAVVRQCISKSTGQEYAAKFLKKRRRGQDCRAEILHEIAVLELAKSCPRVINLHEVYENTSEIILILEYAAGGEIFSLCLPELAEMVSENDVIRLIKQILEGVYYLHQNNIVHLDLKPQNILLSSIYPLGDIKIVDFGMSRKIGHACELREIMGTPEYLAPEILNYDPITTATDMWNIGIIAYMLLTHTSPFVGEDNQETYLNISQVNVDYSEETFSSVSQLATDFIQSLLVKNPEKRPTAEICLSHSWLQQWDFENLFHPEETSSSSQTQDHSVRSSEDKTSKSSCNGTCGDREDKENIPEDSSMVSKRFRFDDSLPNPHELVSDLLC

Usually IC50 stands for the point on the concentration scale where inhibition reaches its midpoint. Consider `CCCCCCC=CCCCCCCCc1ccc(O)cc1O` [Compound 1], for which the IC50 is 7.73 ± 0.7 µM.

The compound `CCCCCCc1cccc(CCCc2cc(O)cc(O)c2)c1` [Compound 17] showed an IC50 of 4.94 ± 1.18 µM.

`CCCCCCc1cccc(CCCc2cc(O)cc(O)c2Cl)c1` [Compound 28] had an IC50 of 4.06 ± 0.35 µM.

`CCCCCCc1cccc(CCCc2cc(O)cc(NS(=O)(=O)CC)c2)c1` [Compound 39] displayed an IC50 of 4.93 ± 1.09 µM.
